Square brackets hold non-standard residues; d marks the D form. Peptide text beside a SMILES is read from it. * marks the point of attachment. Asu = N[C@@H](CCCCCC(=O)O)C(=O)O; dPip = O=C(O)[C@H]1CCCCN1; NHOH = ON*
Columns and labels:
[1] = target: T1, Histone deacetylase 11 (Homo sapiens) (UniProt Q96DB2); assay: Inhibition of HDAC11 (unknown origin) expressed in HEK293T cells at 100 uM relative to control; assay type: cell-based
T1 sequence (whole entry): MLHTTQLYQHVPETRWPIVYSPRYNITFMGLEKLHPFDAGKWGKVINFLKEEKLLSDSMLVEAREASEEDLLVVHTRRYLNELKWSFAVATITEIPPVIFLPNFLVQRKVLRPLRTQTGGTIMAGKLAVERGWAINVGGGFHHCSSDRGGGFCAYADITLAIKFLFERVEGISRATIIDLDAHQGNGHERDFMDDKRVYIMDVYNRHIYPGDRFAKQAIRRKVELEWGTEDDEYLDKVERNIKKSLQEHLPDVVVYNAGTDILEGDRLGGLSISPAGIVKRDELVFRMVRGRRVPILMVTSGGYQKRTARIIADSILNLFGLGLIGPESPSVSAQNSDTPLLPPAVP

Histone deacetylase 8 = target: T2, Histone deacetylase 8 (Homo sapiens, UniProt Q9BY41); assay: Inhibition of human Flag-tagged HDAC8 expressed in HEK293T cells by fluorescence based analysis; assay type: cell-based
T2 sequence (Q9BY41 whole entry): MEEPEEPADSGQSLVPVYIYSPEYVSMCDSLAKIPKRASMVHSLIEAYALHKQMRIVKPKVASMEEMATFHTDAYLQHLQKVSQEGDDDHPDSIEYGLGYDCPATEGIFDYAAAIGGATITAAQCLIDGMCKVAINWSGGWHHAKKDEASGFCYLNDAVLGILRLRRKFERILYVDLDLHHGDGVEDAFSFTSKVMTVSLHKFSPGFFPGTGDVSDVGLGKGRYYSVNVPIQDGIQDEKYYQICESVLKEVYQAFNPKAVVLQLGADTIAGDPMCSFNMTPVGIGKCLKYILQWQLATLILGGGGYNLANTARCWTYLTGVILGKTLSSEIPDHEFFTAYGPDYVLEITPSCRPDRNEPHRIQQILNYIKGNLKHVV

[2] = target: T3, Protein deacetylase HDAC6 (Homo sapiens, UniProt Q9UBN7); assay: Inhibition of human recombinant HDAC6 using AMC-K(Ac)GL as substrate by fluorescence based assay
T3 sequence (Q9UBN7 whole entry): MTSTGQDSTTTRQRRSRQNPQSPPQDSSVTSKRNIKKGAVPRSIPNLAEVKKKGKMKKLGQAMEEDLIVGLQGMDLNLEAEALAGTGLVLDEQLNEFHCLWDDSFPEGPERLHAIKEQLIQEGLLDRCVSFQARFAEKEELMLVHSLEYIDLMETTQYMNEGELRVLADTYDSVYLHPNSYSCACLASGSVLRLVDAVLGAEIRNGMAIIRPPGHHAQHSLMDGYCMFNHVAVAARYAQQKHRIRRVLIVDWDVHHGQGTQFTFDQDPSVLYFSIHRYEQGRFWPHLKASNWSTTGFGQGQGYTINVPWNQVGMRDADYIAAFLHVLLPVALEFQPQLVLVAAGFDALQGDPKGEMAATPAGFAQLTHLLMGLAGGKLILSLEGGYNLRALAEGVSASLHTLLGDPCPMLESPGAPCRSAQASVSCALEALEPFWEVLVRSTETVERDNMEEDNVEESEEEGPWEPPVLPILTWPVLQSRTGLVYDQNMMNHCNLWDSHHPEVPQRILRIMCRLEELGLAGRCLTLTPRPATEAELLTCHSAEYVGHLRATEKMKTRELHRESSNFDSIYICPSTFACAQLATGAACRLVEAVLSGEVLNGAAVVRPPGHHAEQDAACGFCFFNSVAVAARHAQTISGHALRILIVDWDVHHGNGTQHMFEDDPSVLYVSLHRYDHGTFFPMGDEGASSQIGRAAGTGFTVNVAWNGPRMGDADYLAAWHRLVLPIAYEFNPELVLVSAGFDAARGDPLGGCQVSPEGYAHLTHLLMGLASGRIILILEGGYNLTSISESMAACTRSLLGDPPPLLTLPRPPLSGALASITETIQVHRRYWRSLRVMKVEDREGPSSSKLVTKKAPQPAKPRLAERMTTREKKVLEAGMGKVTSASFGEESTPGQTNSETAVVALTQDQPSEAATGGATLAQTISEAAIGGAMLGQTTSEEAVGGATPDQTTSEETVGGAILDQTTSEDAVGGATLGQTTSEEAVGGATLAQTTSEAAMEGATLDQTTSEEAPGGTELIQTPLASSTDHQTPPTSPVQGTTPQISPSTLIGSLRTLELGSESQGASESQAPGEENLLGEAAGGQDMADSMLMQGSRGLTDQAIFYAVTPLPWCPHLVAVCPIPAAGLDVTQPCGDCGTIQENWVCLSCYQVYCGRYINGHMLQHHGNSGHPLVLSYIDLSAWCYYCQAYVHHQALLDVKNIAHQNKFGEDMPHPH

Histone deacetylase 11 [3] = target: T4, Histone deacetylase 11 (Homo sapiens, UniProt Q96DB2); assay: Inhibition of full length human recombinant HDAC11 using FAM-RHKK(tri-fluor-Ac)-NH2 as substrate by electrophoretic mobility shift assay
T4 sequence (Q96DB2 whole entry): T1 sequence (whole entry)

Histone deacetylase 11 [4] = target: T4, Histone deacetylase 11; assay: Inhibition of full length N-terminal GST-tagged human HDAC11
Histone deacetylase 11 [5] = target: T4, Histone deacetylase 11; assay: Inhibition of HDAC11 (unknown origin)

Row | SMILES | inhibition [1] | also measured
1 | CCCC(=O)O | < 5% | 
2 | CCCCCCCCCCCCCCCCNNC(=O)c1cccs1 |  | IC50 (Histone deacetylase 8): > 100 µM
3 | O=C(O)C(F)(F)F | < 5% | 
4 | CCC(=O)O | < 10% | 
5 | Cn1c(/C=C/C(=O)NO)ccc1/C=C/C(=O)c1cccc(F)c1 |  | IC50 [2]: 8.4 µM
6 | CCCCCCCCCCCCCCCC(=O)O [PALMITIC ACID] |  | IC50 (Histone deacetylase 11 [3]): 900 µM
7 | O=C(O)CCCC[C@@H]1CCSS1 | < 20% | 
8 | O=C(O)CCCC[C@@H]1SC[C@@H]2NC(=O)N[C@@H]21 | < 20% | 
9 | CCCCCC(=O)O | < 20% | 
10 | CCCCCCCC(=O)O | < 20% | 
11 | CC[C@H](C)[C@@H]1NC(=O)[C@H](Cc2c[nH]c3ccccc23)NC(=O)[C@H](CCCCCC(=O)NO)NC(=O)[C@H]2CCCCN2C1=O (cyclo([Asu](NHOH)WI[dPip])) |  | IC50 (Histone deacetylase 11 [4]): 0.01 µM
12 | O=C(O)/C=C/c1ccc(-c2ccc(O)c(C34CC5CC(CC(C5)C3)C4)c2)cc1 [ADAROTENE] |  | IC50 (Histone deacetylase 11 [5]): > 10 µM
13 | CCCCCCCCCCCCCCCCNNC(=O)c1ccc(N(C)C)cc1 |  | IC50 (Histone deacetylase 8): > 100 µM
14 | CC(=O)O | < 10% | 
